Read-outs that look alike come from different tables or passages of the source.
Experiments:
[1] = system: ZIKV human strain PLCal_ZV (2013/Thailand); experiment: Plaque reduction inhibition assay in Vero E6 cells, ZIKV PLCal_ZV; type: cell-based, Zika virus (ZIKV)
Procedure: A plaque reduction inhibition assay was carried out to measure the inhibitory activity of Z-medicaments against infections of ZIKV and DENV. […] The compound-virus mixtures were then transferred to Vero E6 cells (10^5/well) and incubated at 37° C. for 1 h.

Vero E6 cells = experiment: in vitro
Procedure: The cytotoxicity of the Z-medicaments in Vero E6 (ZIKV target cells) was evaluated using the Cell Counting Kit-8 (CCK8).
Briefly, compounds at 2-fold serial dilutions were added to cells (2.0×10^4/well) pre-seeded in 96-well plates. The cells were cultured at 37° C. for 3 days, and incubated with CCK8 solution, followed by measurement of absorbance at 450 nm (A450 value) using microplate reader.

[2] = system: DENV-3-V1043 (2006/Puerto Rico); experiment: microbe, parasite or virus in culture
Excerpt: (§1) Vero E6 and LLC-MK2 cells were maintained in Dulbecco's Modified Eagle Medium (DMEM) supplemented with 8% fetal bovine serum (FBS) and penicillin and streptomycin (P/S). C6/36 cells were maintained in Eagle's Minimal Essential Medium (EMEM) supplemented with 5% FBS and P/S. ZIKV strains, including human strains PAN2016 (2016/Panama), R116265 (2016/Mexico), PAN2015 (2015/Panama), FLR (2015/Colombia), R103451 (2015/Honduras), PRVABC59 (2015/Puerto Rico), PLCal_ZV (2013/Thailand), and IbH 30656 (1968/Nigeria), mosquito strain MEX 2-81 (2016/Mexico), and rhesus macaque strain MR 766 (1947/Uganda), were used in the studies. These ZIKV strains were cultured in Vero E6 cells, and viral titers were detected by a standard plaque-forming assay. DENV human strains, including type 1: DENV-1-V1792 (2007/Vietnam), type 2: DENV-2-V594 (2006/Puerto Rico), type 3: DENV-3-V1043 (2006/Puerto Rico), and type 4: DENV-4-PR 06-65-740 (2006/Puerto Rico), were cultured in C6/36 cells, and the viral titers were determined by plaque-forming assay as described above.
(§2) The inhibitory activity of the Z-medicaments against DENV-1-4 was performed following the similar procedures as for ZIKV, except that LLC-MK2 cells were used for the infection, and cells were cultured at 37° C. for 14-16 days before staining with 0.5% crystal violet.
(§3) After removal of the unbound compounds by centrifugation after addition of 3% PEG-6000, ZIKV was incubated with Vero E6 cells at 37° C. for 1 h. The cells were then washed with PBS, overlaid with DMEM containing 1% carboxymethyl cellulose and 2% FBS, and cultured at 37° C. for 4-5 days, followed by staining with 0.5% crystal violet.

[3] = system: DENV-4-PR 06-65-740 (2006/Puerto Rico); experiment: microbe, parasite or virus in culture
Excerpt: as §1, §2, §3

[4] = system: DENV-1-V1792 (2007/Vietnam); experiment: microbe, parasite or virus in culture
Excerpt: as §1, §2, §3

[5] = system: DENV-2-V594 (2006/Puerto Rico); experiment: microbe, parasite or virus in culture
Excerpt: as §1, §2, §3

ZIKV FLR strain = experiment: Combinatorial effects of gossypol with other Z-medicaments, ZIKV FLR; type: cell-based, Zika virus (ZIKV); conditions: for Fold of Enhancement / CI (combination index): ZIKV FLR; for Fold of Enhancement: IC50 alone / in mixture; for CI (combination index): named compound in combination with gossypol
Procedure: The unbound viruses and Z-medicaments were removed, and the cells were cultured at 37° C. for 4-5 days, followed by staining with 0.5% crystal violet. The Z-medicaments without combinations were used as controls. The IC50 of the Z-medicaments was calculated as described above.
The Z-medicaments were then analyzed for synergistic effects based on the combination index (CI) and IC50 values using the CalcuSyn program. Specifically, CI values <1 and >1 indicate synergy and antagonism, respectively. Synergy was further identified as five different categories: CI values <0.1, 0.1-0.3, 0.3-0.7, 0.7-0.85, and 0.85-0.90 indicate very strong synergism, strong synergism, synergism, moderate synergism, and slight synergism, respectively. Fold enhancement of anti-ZIKV potency is expressed as the ratio of molar concentrations of the Z-medicaments tested alone and in the mixture.

[6] = Zika virus, Vero C1008, Vero E6 cells, Table 1, read-out: IC50 against ZIKV strain PLCal_ZV
[7] = Dengue virus, DENV3, LLC-MK2, read-out: IC50 DENV-3-V1043, LLC-MK2 cells, Table 5
[8] = Dengue virus, DENV4, LLC-MK2, read-out: IC50 DENV-4-PR 06-65-740, LLC-MK2 cells, Table 5
[9] = Dengue virus, DENV1, LLC-MK2, read-out: IC50 DENV-1-V1792, LLC-MK2 cells, Table 5
[10] = Dengue virus, DENV2, LLC-MK2, read-out: IC50 DENV-2-V594, LLC-MK2 cells, Table 5
[11] = Vero E6 cells, 3 days, CCK8, Table 1

## Cc1cc2c(C(C)C)c(O)c(O)c(/C=N/n3c(=O)[nH][nH]c3=O)c2c(O)c1-c1c(C)cc2c(C(C)C)c(O)c(O)c(/C=N/n3c(=O)[nH][nH]c3=O)c2c1O [ST087010]
[1]; Vero E6 cells, Table 7, gossypol derivatives, read-out: ZIKV strains IC50, PLCal_ZV
  IC50: 2.21 ± 0.08 µM
Vero E6 cells; Vero E6 cells
  CC50 relative to that of gossypol: about 3.5 fold
Vero E6 cells; Vero E6 cells, Table 7, gossypol derivatives
  CC50: 49.6 ± 1.83 µM
[2]
  SI (CC50/IC50), DENV-3-V1043: 14.2
[2]; read-out: IC50 DENV-3-V1043, LLC-MK2 cells, Table 8
  IC50: 3.33 ± 0.08 µM
[3]
  SI (CC50/IC50), DENV-4-PR 06-65-740: 15.8
[3]; read-out: IC50 DENV-4-PR 06-65-740, LLC-MK2 cells, Table 8
  IC50: 2.98 ± 0.18 µM
[4]
  SI (CC50/IC50), DENV-1-V1792: 15.7
[4]; read-out: IC50 DENV-1-V1792, LLC-MK2 cells, Table 8
  IC50: 3.01 ± 0.11 µM
[5]
  SI (CC50/IC50), DENV-2-V594: 14.8
[5]; read-out: IC50 DENV-2-V594, LLC-MK2 cells, Table 8
  IC50: 3.19 ± 0.01 µM

## Cc1cc2c(C(C)C)c(O)c(O)c(C=O)c2c(O)c1-c1c(C)cc2c(C(C)C)c(O)c(O)c(C=O)c2c1O [Gossypol, gossypol]
ZIKV FLR strain; Zika virus, Vero C1008, read-out: IC50 Alone
  IC50: 0.26 ± 0.01 µM
[1]; [6]
  IC50: 1.98 ± 0.07 µM
[1]; Zika virus, Vero C1008, read-out: ZIKV strains IC50, PLCal_ZV
  IC50: 2.88 ± 0.19 µM
Vero E6 cells; African green monkey, 3 days
  CC50: 14.2 ± 0.74 µM
[2]; [7]
  IC50: 3.7 µM
[2]; Dengue virus, DENV3, LLC-MK2, read-out: IC50 DENV-3-V1043, LLC-MK2 cells, Table 8
  IC50: 3.42 ± 0.11 µM
[3]; [8]
  IC50: 2.6 µM
[3]; Dengue virus, DENV4, LLC-MK2, read-out: IC50 DENV-4-PR 06-65-740, LLC-MK2 cells, Table 8
  IC50: 2.83 ± 0.07 µM
[4]; [9]
  IC50: 1.87 µM
[4]; Dengue virus, DENV1, LLC-MK2, read-out: IC50 DENV-1-V1792, LLC-MK2 cells, Table 8
  IC50: 2.06 ± 0.13 µM
[5]; [10]
  IC50: 1.89 µM
[5]; Dengue virus, DENV2, LLC-MK2, read-out: IC50 DENV-2-V594, LLC-MK2 cells, Table 8
  IC50: 1.91 ± 0.01 µM

## C[C@@H]1CC[C@@]2(OC1)O[C@H]1[C@@H](O)[C@H]3[C@@H]4CC[C@H]5C[C@@H](O[C@@H]6O[C@H](CO)[C@H](O[C@@H]7O[C@H](CO)[C@@H](O)[C@H](O[C@@H]8OC[C@@H](O)[C@H](O)[C@H]8O)[C@H]7O[C@@H]7O[C@H](CO)[C@H](O)[C@H](O[C@@H]8O[C@H](CO)[C@@H](O)[C@H](O)[C@H]8O)[C@H]7O)[C@H](O)[C@H]6O)[C@H](O)C[C@]5(C)[C@H]4CC[C@]3(C)[C@H]1[C@@H]2C [Digitonin, digitonin]
ZIKV FLR strain; gossypol + digitonin
  Fold of Enhancement: 2.04
ZIKV FLR strain
  CI (combination index): 0.95
[1]; [6]
  IC50: 3.19 ± 0.25 µM
Vero E6 cells; [11]
  CC50: 56.3 ± 1.2 µM
[2]; [7]
  IC50: 4.07 ± 0.83 µM
[3]; [8]
  IC50: 6.44 ± 0.34 µM
[4]; [9]
  IC50: 5.21 ± 0.35 µM
[5]; [10]
  IC50: 6.56 ± 0.21 µM

## COc1cc(/C=C/C(=O)CC(=O)/C=C/c2ccc(O)c(OC)c2)ccc1O [Curcumin, curcumin]
ZIKV FLR strain; gossypol + curcumin
  Fold of Enhancement: 3.84
ZIKV FLR strain
  CI (combination index): 0.49
Vero E6 cells; [11]
  CC50: 52.86 ± 0.52 µM

## C[C@H]1[C@H]2CC[C@H]3[C@@H]4CC=C5C[C@@H](N(C)C)CC[C@]5(C)[C@H]4CC[C@]23CN1C [Conessine, conessine]
ZIKV FLR strain; gossypol + conessine
  Fold of Enhancement: 2.13
ZIKV FLR strain
  CI (combination index): 0.85
